The results in this text go back to ChEMBL document CHEMBL5055642, “Strobiloscyphones A-F, 6-Isopentylsphaeropsidones and Other Metabolites from Strobiloscypha sp. AZ0266, a Leaf-Associated Fungus of Douglas Fir” (J Nat Prod, 2021).

In data set [1] the test system is PC-3M. Briefly: Cytotoxicity against human PC-3M cells assessed as inhibition of cell proliferation measured after 72 hrs by resazurin dye based AlamarBlue assay. It is filed as functional. In general terms: The colour change of resazurin is a common sign of viable cells or microbes.
In data set [2] the test system is NCI-H460. The data set is described as follows: Cytotoxicity against human NCI-H460 cells assessed as inhibition of cell proliferation measured after 72 hrs by resazurin dye based AlamarBlue assay. It is filed as functional. Conditions: NCI-H460, 72 h.
The subject of data set [3] is SF-268. Briefly: Cytotoxicity against human SF-268 cells assessed as inhibition of cell proliferation measured after 72 hrs by resazurin dye based AlamarBlue assay. The settings on record: SF-268, 72 h. It is filed as functional.
In data set [4] the test system is MCF7. The data set is described as follows: Cytotoxicity against human MCF7 cells assessed as inhibition of cell proliferation measured after 72 hrs by resazurin dye based AlamarBlue assay. The format is functional. Conditions: MCF7, 72 h.
The test system of data set [5] is MDA-MB-231. The data set is described as follows: Cytotoxicity against human MDA-MB-231 cells assessed as inhibition of cell proliferation measured after 72 hrs by resazurin dye based AlamarBlue assay. The format is functional. The settings on record: MDA-MB-231, 72 h.
Data set [6] relates to WI-38. Briefly: Cytotoxicity against human WI-38 cells assessed as inhibition of cell proliferation measured after 72 hrs by resazurin dye based AlamarBlue assay. Conditions: WI-38, 72 h.
The subject of data set [7] is Escherichia coli. Briefly: Antibacterial activity against Escherichia coli ATCC 25922 assessed as inhibition of bacterial growth incubated for 24 hrs by CLSI method. The format is functional.
The test system of data set [8] is Pseudomonas aeruginosa. The data set is described as follows: Antibacterial activity against Pseudomonas aeruginosa ATCC 10197 assessed as inhibition of bacterial growth incubated for 24 hrs by CLSI method. The format is functional.
The next data set concerns Staphylococcus aureus. The data set is described as follows: Antibacterial activity against Staphylococcus aureus ATCC 25923 assessed as inhibition of bacterial growth incubated for 24 hrs by CLSI method. It is filed as functional.
Data set [9] relates to Candida albicans. Briefly: Antifungal activity against Candida albicans ATCC 10261 assessed as inhibition of fungus growth incubated for 24 hrs by CLSI method. The format is functional.
For data set [10], the system named is Pseudomonas aeruginosa. Briefly: Antibacterial activity against Pseudomonas aeruginosa ATCC 10197 assessed as inhibition of bacterial growth at 25 ug/ml incubated for 24 hrs by CLSI method relative to control. The format is functional.
In data set [11] the test system is Escherichia coli. Briefly: Antibacterial activity against Escherichia coli ATCC 25922 assessed as inhibition of bacterial growth at 12.5 ug/ml incubated for 24 hrs by CLSI method relative to control. The format is functional.
Data set [12] deals with Candida albicans. The data set is described as follows: Antifungal activity against Candida albicans ATCC 10261 assessed as inhibition of fungal growth at 12.5 ug/ml incubated for 24 hrs by CLSI method relative to control. The format is functional.
Data set [13] has as its system Candida albicans. Briefly: Antifungal activity against Candida albicans ATCC 10261 assessed as inhibition of fungal growth at 6.25 ug/ml incubated for 24 hrs by CLSI method relative to control. The format is functional.
The test system of data set [14] is NCI-H460. Briefly: Cytotoxicity against human NCI-H460 cells assessed as inhibition of cell proliferation up to 10 uM measured after 72 hrs by resazurin dye based AlamarBlue assay. It is filed as functional.
Data set [15] concerns WI-38. Briefly: Cytotoxicity against human WI-38 cells assessed as inhibition of cell proliferation up to 10 uM measured after 72 hrs by resazurin dye based AlamarBlue assay. Conditions: wi-38, 72 h.
Data set [16] relates to PC-3M. Briefly: Cytotoxicity against human PC-3M cells assessed as inhibition of cell proliferation up to 10 uM measured after 72 hrs by resazurin dye based AlamarBlue assay. The format is functional.
Data set [17] relates to SF-268. Briefly: Cytotoxicity against human SF-268 cells assessed as inhibition of cell proliferation up to 10 uM measured after 72 hrs by resazurin dye based AlamarBlue assay. The format is functional.
For data set [18], the system named is MCF7. The data set is described as follows: Cytotoxicity against human MCF7 cells assessed as inhibition of cell proliferation up to 10 uM measured after 72 hrs by resazurin dye based AlamarBlue assay. The format is functional.
For data set [19], the system named is MDA-MB-231. The data set is described as follows: Cytotoxicity against human MDA-MB-231 cells assessed as inhibition of cell proliferation up to 10 uM measured after 72 hrs by resazurin dye based AlamarBlue assay. The format is functional.
Data set [20] deals with Candida albicans. The data set is described as follows: Antifungal activity against Candida albicans ATCC 10261 assessed as inhibition of fungal growth at 100 ug/ml incubated for 24 hrs by CLSI method relative to control. The format is functional.
The subject of data set [21] is Candida albicans. Briefly: Antifungal activity against Candida albicans ATCC 10261 assessed as inhibition of fungal growth at 50 ug/ml incubated for 24 hrs by CLSI method relative to control. It is filed as functional.

Converted amounts (≈) assume the structure as drawn. The source made the active and inactive calls.

Take `COC1=CC(=O)[C@H]2O[C@H]2C1=O`: the half-maximal inhibitory concentration (IC50) came out at 2.5 µM with PC-3M [1]; 2500 nM with NCI-H460 [2]; 1200 nM in the data set with SF-268 [3]; 1400 nM in the data set with MCF7 [4]; 2200 nM in the data set on MDA-MB-231 [5]; 7.8 µM with WI-38 [6]. Further, the MBC in the data set with Escherichia coli [7] was 25 µg/mL (≈ 162 µM). Moreover, the MIC in the data set on Escherichia coli [7], with Pseudomonas aeruginosa [8], with Staphylococcus aureus and in the data set on Candida albicans [9] was 25 µg/mL (≈ 162 µM) in each case. In addition, in the data set with Candida albicans [9], the MFC worked out at 25 µg/mL (≈ 162 µM). In addition, the inhibition at 25 µg/mL with Pseudomonas aeruginosa [10] is 50%. Besides, the inhibition at 12.5 µg/mL in the data set on Escherichia coli [11] and in the data set on Candida albicans [12] was 75% each time. Further, the inhibition at 6.25 µg/mL in the data set on Candida albicans [13] came out at 50%.

Regarding `COC1=CC(=O)[C@@]2([C@H](C=C(C)C)OC(C)=O)O[C@]3(OC)CC(=O)[C@H]4O[C@H]4[C@]3(O)[C@H]2C1=O`, the IC50 came to 6 µM in the data set with PC-3M [1], 2700 nM in the data set with SF-268 [3], 2900 nM with MCF7 [4] and 6000 nM in the data set with MDA-MB-231 [5]. Besides, in the data set with NCI-H460 [14], the outcome was inactive. Further, the Activity entry in the data set on WI-38 [15] was “Non-Toxic”.

Regarding `COc1cccc2c1C(=O)c1c(O)c3c(c(O)c1C2=O)C[C@@](O)(C(=O)CO)C[C@@H]3O[C@H]1C[C@H](N)[C@H](O)[C@H](C)O1` [DOXORUBICIN], the IC50 with PC-3M [1] was 0.3 µM; in the data set on NCI-H460 [2], 100 nM; in the data set with MDA-MB-231 [5], 700 nM.

Turning to `COC1=CC(=O)[C@@]2([C@@H](O)C=C(C)C)O[C@H]2[C@H]1O`, the result with PC-3M [16], with NCI-H460 [14], with SF-268 [17], with MCF7 [18] and with MDA-MB-231 [19] was inactive. Besides, the Activity result in the data set with WI-38 [15] is “Non-Toxic”.

For `COC1=CC(=O)[C@](O)([C@H](C=C(C)C)OC(C)=O)C[C@H]1O`, the outcome in the data set on PC-3M [16], in the data set with NCI-H460 [14], in the data set with SF-268 [17], in the data set on MCF7 [18] and in the data set on MDA-MB-231 [19] was inactive. Further, the Activity entry with WI-38 [15] was “Non-Toxic”.

On to `COC1=CC(=O)[C@@]2([C@H](O)C=C(C)C)O[C@H]2C1=O`, for which the half-inhibitory concentration (IC50) in the data set on PC-3M [1] turned out to be 4.6 µM; in the data set on NCI-H460 [2] it was 4800 nM; in the data set with SF-268 [3], 1300 nM; with MCF7 [4], 1600 nM; in the data set on MDA-MB-231 [5], 2600 nM; in the data set on WI-38 [6], 8.3 µM.

With `COC1=C[C@@H](O)[C@H]2O[C@H]2C1=O`, the IC50 was 1700 nM in the data set on SF-268 [3], 1600 nM in the data set on MCF7 [4] and 3.8 µM in the data set with WI-38 [6].

Consider `COC1=CC(=O)[C@H]2O[C@H]2[C@H]1O`, for which the outcome in the data set on PC-3M [16], with NCI-H460 [14], with SF-268 [17], in the data set with MCF7 [18] and with MDA-MB-231 [19] was inactive. For the same molecule, in the data set on WI-38 [15], the Activity entry is “Non-Toxic”. Moreover, the inhibition at 100 µg/mL with Candida albicans [20] is 75%. Also, the inhibition at 50 µg/mL with Candida albicans [21] was 50%.

On to `COC1=CC(=O)C(O)(C(O)CC(C)(C)O)C[C@H]1O` (some centres not stated), for which the outcome in the data set on PC-3M [16], with NCI-H460 [14], with SF-268 [17], in the data set on MCF7 [18] and in the data set on MDA-MB-231 [19] was inactive. In addition, the Activity result in the data set with WI-38 [15] was “Non-Toxic”.

For `CCCCCCC(=O)C(O)C(O)/C=C/C=C/C=C\C(=O)O` (configuration not stated), the result in the data set with PC-3M [16], with NCI-H460 [14], in the data set on SF-268 [17], in the data set with MCF7 [18] and with MDA-MB-231 [19] was inactive. In addition, the Activity result in the data set with WI-38 [15] is given as “Non-Toxic”.

On to `COC1=CC(=O)[C@@](O)([C@@H](C=C(C)C)OC(C)=O)CC1=O`, for which the outcome in the data set with PC-3M [16], in the data set with NCI-H460 [14], in the data set with SF-268 [17], in the data set with MCF7 [18] and with MDA-MB-231 [19] was inactive. The Activity result with WI-38 [15] was “Non-Toxic”.

What is called IC50 is the concentration that gives 50% inhibition. What is called MBC is the smallest concentration meeting the test's criterion for killing. One may read the MIC as the least concentration at which growth counts as inhibited. The MFC is the smallest concentration meeting the test's criterion for killing the fungus. A word on the inhibition: it is how much of the control response was suppressed.
